Assay results from the NIST ThermoML archive (doi:10.1021/acs.jced.5b00562).

Details: for specific volume: Gas, isochoric method; for mass density: Liquid, Vibrating tube method

F/C=C(\F)C(F)(F)F [(Z)-1,2,3,3,3-pentafluoro-1-propene]
Details | mass density [kg/m3] | specific volume [m3/kg]
323.15 K, 169.7 kPa | – | 0.116
323.15 K, 245.6 kPa | – | 0.079
323.15 K, 1296 kPa | 1172.9 | –
323.15 K, 7500 kPa | 1226.8 | –
323.15 K, 10001 kPa | 1243.3 | –
323.15 K, 12499 kPa | 1257.6 | –
323.15 K, 15000 kPa | 1270.8 | –
323.15 K, 17499 kPa | 1282.9 | –
323.15 K, 19999 kPa | 1294 | –
323.15 K, 22500 kPa | 1304.4 | –
323.15 K, 25001 kPa | 1314.1 | –
323.15 K, 27500 kPa | 1323.2 | –
323.15 K, 30001 kPa | 1331.8 | –
323.15 K, 32501 kPa | 1340 | –
323.15 K, 35001 kPa | 1347.7 | –
323.16 K, 466.1 kPa | – | 0.04
323.16 K, 1499 kPa | 1175.1 | –
323.16 K, 2000 kPa | 1180.3 | –
323.16 K, 2502 kPa | 1185.5 | –
323.16 K, 4998 kPa | 1207.9 | –
328.07 K, 566.8 kPa | – | 0.033
328.11 K, 360.1 kPa | – | 0.054
328.14 K, 669.2 kPa | – | 0.027
328.15 K, 172.6 kPa | – | 0.116
328.15 K, 249.7 kPa | – | 0.079
328.15 K, 475.1 kPa | – | 0.04
333.1 K, 365.4 kPa | – | 0.054
333.1 K, 578.2 kPa | – | 0.033
333.13 K, 682.7 kPa | – | 0.027
333.15 K, 174.9 kPa | – | 0.116
333.15 K, 253.9 kPa | – | 0.079
333.15 K, 483.9 kPa | – | 0.04
333.15 K, 1502 kPa | 1124.9 | –
333.15 K, 1999 kPa | 1132 | –
333.15 K, 2500 kPa | 1138.6 | –
333.15 K, 5000 kPa | 1166.8 | –
333.15 K, 7500 kPa | 1189.4 | –
333.15 K, 10000 kPa | 1208.6 | –
333.15 K, 12500 kPa | 1225.4 | –
333.15 K, 15000 kPa | 1240.4 | –
333.15 K, 17500 kPa | 1255 | –
333.15 K, 20000 kPa | 1266.6 | –
333.15 K, 22500 kPa | 1278.1 | –
333.15 K, 25003 kPa | 1288.8 | –
333.15 K, 27500 kPa | 1298.8 | –
333.15 K, 29999 kPa | 1308.2 | –
333.15 K, 32500 kPa | 1317.8 | –
333.15 K, 35000 kPa | 1326.3 | –
338.08 K, 589.4 kPa | – | 0.033
338.08 K, 696.3 kPa | – | 0.027
338.14 K, 371.5 kPa | – | 0.054
338.15 K, 177.9 kPa | – | 0.116
338.15 K, 257.7 kPa | – | 0.079
338.15 K, 492.8 kPa | – | 0.04
343.08 K, 600.4 kPa | – | 0.033
343.09 K, 377.8 kPa | – | 0.054
343.13 K, 710 kPa | – | 0.027
343.15 K, 181 kPa | – | 0.116
343.15 K, 262.4 kPa | – | 0.079
343.15 K, 501.5 kPa | – | 0.04
343.15 K, 1800 kPa | 1070 | –
343.15 K, 2000 kPa | 1074.1 | –
343.15 K, 2500 kPa | 1083.8 | –
343.15 K, 5001 kPa | 1121.1 | –
343.15 K, 7500 kPa | 1149.2 | –
343.15 K, 10001 kPa | 1172 | –
343.15 K, 12500 kPa | 1191.5 | –
343.15 K, 15000 kPa | 1208.5 | –
343.15 K, 17500 kPa | 1223.8 | –
343.15 K, 20000 kPa | 1237.6 | –
343.15 K, 22500 kPa | 1250.3 | –
343.15 K, 27500 kPa | 1273.2 | –
343.15 K, 30000 kPa | 1283.5 | –
343.15 K, 32500 kPa | 1293.3 | –
343.15 K, 35000 kPa | 1302.5 | –
343.16 K, 25000 kPa | 1262.3 | –
348.06 K, 611.4 kPa | – | 0.033
348.07 K, 383.7 kPa | – | 0.054
348.14 K, 723.7 kPa | – | 0.027
348.15 K, 183.8 kPa | – | 0.116
348.15 K, 266.6 kPa | – | 0.079
348.15 K, 510.2 kPa | – | 0.04
353.05 K, 390.1 kPa | – | 0.054
353.11 K, 622.8 kPa | – | 0.033
353.13 K, 737.3 kPa | – | 0.027
353.14 K, 20000 kPa | 1209 | –
353.15 K, 186.6 kPa | – | 0.116
353.15 K, 270.7 kPa | – | 0.079
353.15 K, 518.9 kPa | – | 0.04
353.15 K, 5000 kPa | 1070.7 | –
353.15 K, 7500 kPa | 1106.5 | –
353.15 K, 10000 kPa | 1134 | –
353.15 K, 12500 kPa | 1156.8 | –
353.15 K, 15000 kPa | 1176.3 | –
353.15 K, 17500 kPa | 1193.5 | –
353.15 K, 22500 kPa | 1223 | –
353.15 K, 25000 kPa | 1235.9 | –
353.15 K, 27500 kPa | 1247.9 | –
353.15 K, 30000 kPa | 1259 | –
353.15 K, 32502 kPa | 1269.4 | –
353.16 K, 2500 kPa | 1016.9 | –
353.16 K, 35001 kPa | 1279.2 | –
358.11 K, 397.3 kPa | – | 0.054
358.15 K, 189.5 kPa | – | 0.116
358.15 K, 274.5 kPa | – | 0.079
358.15 K, 527.6 kPa | – | 0.04
358.15 K, 750.7 kPa | – | 0.027
358.17 K, 633.7 kPa | – | 0.033
363.13 K, 764 kPa | – | 0.027
363.14 K, 278.7 kPa | – | 0.079
363.14 K, 644.4 kPa | – | 0.033
363.16 K, 192.3 kPa | – | 0.116
363.16 K, 536.1 kPa | – | 0.04
363.29 K, 404 kPa | – | 0.054
368.03 K, 409.8 kPa | – | 0.054
368.1 K, 777.4 kPa | – | 0.027
368.15 K, 194.3 kPa | – | 0.116
368.15 K, 544.7 kPa | – | 0.04
368.16 K, 282.9 kPa | – | 0.079
368.16 K, 655.3 kPa | – | 0.033
